pIC50, pKd: −log10 of the molar value.
How the values were obtained:
GluR5 receptor [1] = biological target: T1, GluR5 receptor (Homo sapiens, UniProt P39086); experiment: GluR5 binding assay: displacement of 3H-ATPA from membranes of HEK293 cells expressing GluR5
T1 construct: expressed in transfected cells; host or cells: HEK293
Experimental: The amount of radioactivity on the filters is determined by conventional liquid scintillation counting. Specific binding is total binding minus non-specific binding.

GluR5 receptor [2] = biological target: T1, GluR5 receptor; experiment: Functional GluR5 assay: inhibition of domoate-induced increase in intracellular free calcium (FLIPR, Fluo-4); assay type: cell-based; details: for pIC50: HEK293 cells stably expressing un-edited GluR5, inhibition of 2 μM domoate-induced Cai elevation
Text: (§1) In this example the inhibition of domoate-induced increase in intracellular free calcium concentration (Cai) is used as a measure for glutamate antagonist activity of test substances. Domoate is a close analog of kainite, and a potent glutamate agonist.
(§2) Human embryonic HEK293 cells stably expressing GluR5 receptors and GluR6 receptors, respectively, in their un-edited forms, are used.
In this example the activity of Compound A of the invention (5-carboxyl-2,4-di-benzamido-benzoic acid), obtained according to Ueda & Imai [Ueda M & Imai Y: Synthesis of polyamides by ring-opening polyaddition of bis-3,1-benzoxazin-4-ones with aliphatic diamines; J. Polym. Sci. 1979 17 (4) 1163-1173], is compared to the action of ATPA, a GluR5 receptor agonist, and CNQX, a GluR5 receptor antagonist that inhibits the activity of the agonist.
(§3) Fluorometric methods for measuring Cai have been developed [see e.g. Tsien et al., J. Cell. Biol. 1982 94 325]. The calcium-chelating fluorochromes (tetracarboxylic acids) are loaded into the cells as acetoxymethyl esters and subsequently released by unspecific intracellular esterase's. The free acids, which are impermeable to the cell membrane, are maintained in the cell for hours. The fluorescence spectrum (either EXmax, EMmax or both) is changed by the binding of calcium. The fluorescence is then directly proportional to the Cai.
(§4) The present method uses the fluorochromes Fluo-3 or Fluo-4 as the calcium-chelator. Fluo-3/Fluo-4 is virtually nonfluorescent without calcium but the calcium-Fluo-3/Fluo-4 complexes show a bright fluorescence (EMmax=526 nm) after excitation around 500 nm (EXmax=505 nm). This fluorescence spectrum is similar to the spectrum of fluorescein. Since excitation and emission is in the visible light region of the spectrum standard equipment without quarts optics may be used.
The HEK293 cells stably expressing GluR5 or GluR6 expressing are grown in Dulbecco's Modified Eagle Medium (DMEM) containing 10% foetal calf serum, in polystyrene culture flasks (175 cm^2) in a humidified atmosphere of 5% CO2 in air, at 37° C. Confluency of cells should be 80-90% on day of plating. GluR5 or GluR6 cells are rinsed with 10 ml of phosphate buffered saline (PBS), then added 1.5 ml of Trypsin-EDTA and left in the incubator for 5 min. After addition of 10 ml of growth media, cells are resuspended by trituration with a 10 ml pipette 15 times. […]
(§5) After the loading period, the loading media is aspirated and the cells are washed twice with 100 μl Na^+ free Ringer solution (NN: 10 mM HEPES, 140 mM Choline chloride, 5 mM KCl, 1 mM MgCl2, 10 mM CaCl2, pH 7.4) to remove extracellular dye. 100 μl NN is added to each well, and the fluorescence is measured in the FLIPR (Fluorescence Image Plate Reader). […]

GluR6 receptors = biological target: T2, GluR6 receptors (Homo sapiens, UniProt Q13002); experiment: Functional GluR6 assay: inhibition of domoate-induced increase in intracellular free calcium (FLIPR, Fluo-4); assay type: cell-based; details: for pIC50: HEK293 cells stably expressing un-edited GluR6, inhibition of 2 μM domoate-induced Cai elevation
T2 construct: expressed in transfected cells; host or cells: HEK293
T2 sequence (Q13002 32-908): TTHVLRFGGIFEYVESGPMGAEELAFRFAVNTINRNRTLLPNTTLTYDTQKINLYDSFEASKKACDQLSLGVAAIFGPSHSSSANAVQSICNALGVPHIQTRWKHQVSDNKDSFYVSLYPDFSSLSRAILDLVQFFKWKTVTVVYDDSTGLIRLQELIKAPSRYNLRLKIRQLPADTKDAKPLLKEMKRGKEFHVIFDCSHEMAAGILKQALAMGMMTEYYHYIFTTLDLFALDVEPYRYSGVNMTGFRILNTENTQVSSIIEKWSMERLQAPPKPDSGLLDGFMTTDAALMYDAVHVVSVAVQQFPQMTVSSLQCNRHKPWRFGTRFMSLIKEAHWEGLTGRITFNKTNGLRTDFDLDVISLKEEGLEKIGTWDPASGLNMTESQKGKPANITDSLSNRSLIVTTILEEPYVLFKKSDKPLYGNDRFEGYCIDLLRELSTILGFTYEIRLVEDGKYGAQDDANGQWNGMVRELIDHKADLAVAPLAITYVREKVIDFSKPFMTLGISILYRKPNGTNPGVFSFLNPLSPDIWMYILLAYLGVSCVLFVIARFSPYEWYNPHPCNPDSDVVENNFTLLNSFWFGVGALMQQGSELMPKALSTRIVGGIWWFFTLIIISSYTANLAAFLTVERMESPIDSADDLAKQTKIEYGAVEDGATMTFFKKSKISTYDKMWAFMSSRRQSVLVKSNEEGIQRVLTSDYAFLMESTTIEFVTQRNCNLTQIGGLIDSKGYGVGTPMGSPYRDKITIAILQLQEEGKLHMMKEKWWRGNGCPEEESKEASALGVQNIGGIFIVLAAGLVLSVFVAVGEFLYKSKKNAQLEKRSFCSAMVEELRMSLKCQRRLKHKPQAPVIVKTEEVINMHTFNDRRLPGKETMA
Text: as §1, §2, §3, §4
The HEK293 cells stably expressing GluR5 or GluR6 expressing are grown in Dulbecco's Modified Eagle Medium (DMEM) containing 10% foetal calf serum, in polystyrene culture flasks (175 cm^2) in a humidified atmosphere of 5% CO2 in air, at 37° C. Confluency of cells should be 80-90% on day of plating. GluR5 or GluR6 cells are rinsed with 10 ml of phosphate buffered saline (PBS), then added 1.5 ml of Trypsin-EDTA and left in the incubator for 5 min. After addition of 10 ml of growth media, cells are resuspended by trituration with a 10 ml pipette 15 times.
The cells are seeded at a density of 0.5-1×10^6 cells/ml (100 μl/well) in black-walled, clear bottom, 96-well plates pre-treated with 0.001% PEI solution (75 μl/well for ≧30 min). Plated cells were allowed to proliferate for 24 h before loading with dye.
Fluo-4-AM (1 mg; Molecular Probes) is added 912 μl DMSO containing 25 mg/150 μl Pluoronic F-127 (Molecular Probes). […]
as §5
Reading intervals: preincubation—10 sec.×7 and 3 sec.×3 antagonist phase—3 sec.×17 and 10 sec.×12 […]

GluR5 receptor [3] = biological target: T1, GluR5 receptor; details: Clarke et al., Nature 1997 389 599-603; read-out: Kd of binding to the GluR5 receptor; cited from earlier work
[4] = inhibition of specific binding of 3 nM 3H-ATPA, HEK293 GluR5 cell membranes, 60 minutes at 2° C., read-out: GluR5 Binding IC50

T1 sequence (P39086 31-918): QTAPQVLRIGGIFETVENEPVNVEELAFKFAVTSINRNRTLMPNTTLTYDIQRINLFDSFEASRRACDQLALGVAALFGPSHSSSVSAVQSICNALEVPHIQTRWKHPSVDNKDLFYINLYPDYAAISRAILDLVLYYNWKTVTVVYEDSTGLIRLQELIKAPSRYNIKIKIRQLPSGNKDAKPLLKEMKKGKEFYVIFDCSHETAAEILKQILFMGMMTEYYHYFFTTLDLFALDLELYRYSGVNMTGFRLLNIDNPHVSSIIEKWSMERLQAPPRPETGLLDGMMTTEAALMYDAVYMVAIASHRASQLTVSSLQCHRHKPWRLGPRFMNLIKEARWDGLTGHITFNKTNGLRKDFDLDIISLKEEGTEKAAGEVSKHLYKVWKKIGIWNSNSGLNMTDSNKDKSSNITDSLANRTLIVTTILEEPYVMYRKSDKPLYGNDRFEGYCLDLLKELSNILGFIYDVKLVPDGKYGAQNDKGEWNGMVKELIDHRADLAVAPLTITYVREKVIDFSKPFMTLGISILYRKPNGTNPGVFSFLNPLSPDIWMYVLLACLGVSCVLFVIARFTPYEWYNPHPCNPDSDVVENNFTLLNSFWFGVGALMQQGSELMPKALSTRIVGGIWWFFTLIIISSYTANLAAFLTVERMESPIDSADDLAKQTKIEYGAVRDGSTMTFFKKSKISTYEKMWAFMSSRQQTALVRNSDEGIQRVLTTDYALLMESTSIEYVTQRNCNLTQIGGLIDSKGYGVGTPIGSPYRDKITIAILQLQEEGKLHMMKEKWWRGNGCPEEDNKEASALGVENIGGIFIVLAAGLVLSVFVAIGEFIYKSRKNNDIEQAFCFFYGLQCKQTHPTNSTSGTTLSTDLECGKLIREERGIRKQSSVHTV

SMILES	pIC50 (GluR5 receptor [1])	pIC50 (GluR5 receptor [2])	pIC50 (GluR6 receptors)	pKd (GluR5 receptor [3])	pIC50 (GluR5 receptor [1]; [4])	Mode of action at the GluR5 receptor (GluR5 receptor [2]; conclusion from functional activity without binding (Table 1))	Selectivity GluR5 over GluR6 (GluR6 receptors; conclusion from functional GluR5 and GluR6 data (Table 1))
CC(C)(C)c1onc(O)c1CC(N)C(=O)O (stereo not drawn) [ATPA, 2-amino-3-(3-hydroxy-5-tert-butylisoxazol-4-yl)propionic acid]	7.62	6.15	< 4.52	8.37	–	–	–
O=C(Nc1cc(NC(=O)c2ccccc2)c(C(=O)O)cc1C(=O)O)c1ccccc1 [Compound A, 5-carboxyl-2,4-di-benzamido-benzoic acid]	–	5.72	< 4.52	–	< 5.00	non-competitive antagonist of the GluR5 receptor	activity only at the GluR5 receptor, not at the GluR6 receptor
N#Cc1cc2[nH]c(=O)c(=O)[nH]c2cc1[N+](=O)[O-] [CNQX]	–	5.48	5.12	–	6.14	–	–
